The source of these data is patent publication US20140080868A1, “Methods for Treating HCV” (priority 2012, published 2014).

Holding throughout (type): cell-based
In test [1] the test system is HCV replicon with NS5A genotype 3a wild type. Description: Transient chimeric replicon assay, genotype 3a WT. Particulars: Hepatitis C virus, read-out: Average EC50. The source says: (§1) Transiently replicating chimeric replicons containing NS5A from genotype 2-6 wild types or replicons containing variants within NS5A were constructed in the 1b-Con1 background. These replicons also contained a firefly luciferase reporter gene. Variants were introduced by site-directed mutagenesis using the Change-IT Multiple Mutation Site Directed Mutagenesis Kit (USB). After the mutagenesis was confirmed by sequence analysis, the plasmids were linearized with Scat restriction enzyme. The TranscriptAid T7 High Yield Transcription Kit (Fermentas) was used to transcribe the HCV subgenomic RNA from the plasmids. The RNA was transfected via electroporation into a Huh-7 derived cell line as described (see Middleton et al. and Tripathi et al., supra) except that 3×10^6 cells were electroporated with 15 μg of template RNA and the 96 well plate was seeded with 7.5×10^3 cells per well. Four hours post-transfection, the wells from one plate were harvested for luciferase measurement. […] Luciferin solution (50 μl, Promega) was added to each well, and luciferase activity was measured with a Victor II luminometer (Perkin-Elmer). The percent inhibition of HCV RNA replication was calculated for each compound concentration and the EC50 value was calculated using nonlinear regression curve fitting to the 4-parameter logistic equation and GraphPad Prism 4 software.

Test [2] concerns HCV replicon with NS5A genotype 5a L31V variant. Description: Transient chimeric replicon assay, genotype 5a L31V. The conditions noted are these: Hepatitis C virus, read-out: Average EC50.
From the text: as §1
In general terms: A replicon is a self-replicating genome or part of one, used to study replication in cells.

Test [3] has as its system HCV replicon with NS5A genotype 6a T58N variant. As to the kind of experiment: Transient chimeric replicon assay, genotype 6a T58N. The conditions noted are these: Hepatitis C virus, read-out: Average EC50.
From the text: as §1

Test [4] deals with HCV replicon with NS5A genotype 2b L31V variant. Description: Transient chimeric replicon assay, genotype 2b L31V. Particulars: Hepatitis C virus, read-out: Average EC50.
From the text: as §1

In test [5] the test system is HCV replicon with NS5A genotype 2b wild type. As to the kind of experiment: Transient chimeric replicon assay, genotype 2b WT. Particulars: Hepatitis C virus, read-out: Average EC50.
From the text: as §1

The test system of test [6] is HCV replicon with NS5A genotype 3a Y93H variant. Description: Transient chimeric replicon assay, genotype 3a Y93H. Particulars: Hepatitis C virus, read-out: Average EC50.
From the text: as §1

The test system of test [7] is HCV replicon with NS5A genotype 2a wild type. As to the kind of experiment: Transient chimeric replicon assay, genotype 2a WT. The conditions noted are these: Hepatitis C virus, read-out: Average EC50.
From the text: as §1

In test [8] the test system is HCV replicon with NS5A genotype 5a L28I variant. As to the kind of experiment: Transient chimeric replicon assay, genotype 5a L28I. Particulars: Hepatitis C virus, read-out: Average EC50.
From the text: as §1

Test [9] deals with HCV replicon with NS5A genotype 6a wild type. As to the kind of experiment: Transient chimeric replicon assay, genotype 6a WT. The conditions noted are these: Hepatitis C virus, read-out: Average EC50.
From the text: as §1

In test [10] the test system is HCV replicon with NS5A genotype 2a T24A variant. As to the kind of experiment: Transient chimeric replicon assay, genotype 2a T24A. The conditions noted are these: Hepatitis C virus, read-out: Average EC50.
From the text: as §1

Test [11] concerns HCV replicon with NS5A genotype 3a M28T variant. Description: Transient chimeric replicon assay, genotype 3a M28T. The conditions noted are these: Hepatitis C virus, read-out: Average EC50.
From the text: as §1

The subject of test [12] is HCV replicon with NS5A genotype 5a L31F variant. Description: Transient chimeric replicon assay, genotype 5a L31F. Particulars: Hepatitis C virus, read-out: Average EC50.
From the text: as §1

The test system of test [13] is HCV replicon with NS5A genotype 6a L31V variant. As to the kind of experiment: Transient chimeric replicon assay, genotype 6a L31V. The conditions noted are these: Hepatitis C virus, read-out: Average EC50.
From the text: as §1

Test [14] deals with HCV replicon with NS5A genotype 2b L28F variant. Description: Transient chimeric replicon assay, genotype 2b L28F. Particulars: Hepatitis C virus, read-out: Average EC50.
From the text: as §1

Test [15] has as its system HCV replicon with NS5A genotype 4a L28V variant. As to the kind of experiment: Transient chimeric replicon assay, genotype 4a L28V. The conditions noted are these: Hepatitis C virus, read-out: Average EC50.
From the text: as §1

Test [16] concerns HCV replicon with NS5A genotype 6a T58A variant. As to the kind of experiment: Transient chimeric replicon assay, genotype 6a T58A. The conditions noted are these: Hepatitis C virus, read-out: Average EC50.
From the text: as §1

The subject of test [17] is HCV replicon genotype 1b-Con1. As to the kind of experiment: Stable subgenomic replicon luciferase assay, genotype 1b-Con1. The conditions noted are these: Hepatitis C virus, luciferase reporter, 5% FBS, read-out: Mean EC50 ± Std. Dev.
The subject of test [18] is HCV replicon with NS5A from genotype 3a. As to the kind of experiment: Stable chimeric 1b-Con1 replicon with NS5A from genotype 3a. The conditions noted are these: Hepatitis C virus, read-out: Mean EC50 ± Std. Dev.
Test [19] concerns HCV replicon genotype 1a-H77. As to the kind of experiment: Stable subgenomic replicon luciferase assay, genotype 1a-H77. Particulars: Hepatitis C virus, luciferase reporter, 5% FBS, read-out: Mean EC50 ± Std. Dev.
Test [20] relates to stable subgenomic replicons with NS5A from HCV genotype 1a, 1b, 2a, 2b, 3a, 4a, 5a, and 6a. Description: Stable subgenomic replicons, genotype panel (summary statement). The conditions noted are these: Hepatitis C virus, read-out: EC50 values against stable subgenomic replicons with NS5A from a broad range of HCV genotypes.
The subject of test [21] is HCV variants that are resistant to other NS5A inhibitors. Description: Transient subgenomic replicon assays, resistant variant panel (summary statement). Particulars: Hepatitis C virus, read-out: EC50 values against HCV variants resistant to other NS5A inhibitors, transient subgenomic replicon assays.
From the text: as §1

In test [22] the test system is HCV replicon with NS5A from genotype 4a. As to the kind of experiment: Stable chimeric 1b-Con1 replicon with NS5A from genotype 4a. The conditions noted are these: Hepatitis C virus, read-out: Mean EC50 ± Std. Dev.
Test [23] deals with HCV replicon with NS5A from genotype 2b. As to the kind of experiment: Stable chimeric 1b-Con1 replicon with NS5A from genotype 2b. The conditions noted are these: Hepatitis C virus, read-out: Mean EC50 ± Std. Dev.
The test system of test [24] is HCV replicon with NS5A from genotype 2a. As to the kind of experiment: Stable chimeric 1b-Con1 replicon with NS5A from genotype 2a. Particulars: Hepatitis C virus, read-out: Mean EC50 ± Std. Dev.
Test [25] concerns HCV replicon with NS5A genotype 4a L30H variant. As to the kind of experiment: Transient chimeric replicon assay, genotype 4a L30H. The conditions noted are these: Hepatitis C virus, read-out: Average EC50.
From the text: as §1

The subject of test [26] is HCV replicon with NS5A from genotype 6a. As to the kind of experiment: Stable chimeric 1b-Con1 replicon with NS5A from genotype 6a. Particulars: Hepatitis C virus, read-out: Mean EC50 ± Std. Dev.
For test [27], the system named is HCV replicon with NS5A from genotype 5a. As to the kind of experiment: Stable chimeric 1b-Con1 replicon with NS5A from genotype 5a. The conditions noted are these: Hepatitis C virus, read-out: Mean EC50 ± Std. Dev.
Test [28] concerns HCV replicon with NS5A genotype 5a wild type. Description: Transient chimeric replicon assay, genotype 5a WT. Particulars: Hepatitis C virus, read-out: Average EC50.
From the text: as §1

One may read the EC50 as the concentration at which the effect is half-maximal.

On to `COC(=O)N[C@H](C(=O)N1CCC[C@H]1C(=O)Nc1ccc([C@@H]2CC[C@@H](c3ccc(NC(=O)[C@@H]4CCCN4C(=O)[C@@H](NC(=O)OC)C(C)C)cc3)N2c2ccc(C(C)(C)C)cc2)cc1)C(C)C` [reference compound, reference compound], for which the concentration giving a half-maximal response (EC50) is 0.0072 nM in [1]; 0.221 nM in test [2]; 8.47 nM in [3]; 0.427 nM in test [4]; 0.0011 nM in test [5]; greater than 100 nM in [6]. Besides, the EC50 in test [7] was 0.0034 nM; in test [8], 0.072 nM; in test [9] it was 0.08 nM; in test [10], 0.092 nM; in test [11] it was 3.03 nM; in [12], 0.263 nM. For the same compound, the half-maximal effective concentration (EC50) was 5.04 nM in test [13], 0.039 nM in [14], 0.0053 nM in test [15] and 1.15 nM in test [16].
Take `COC(=O)N[C@H](C(=O)N1CCC[C@H]1c1nc2cc([C@H]3CC[C@H](c4cc5nc([C@@H]6CCCN6C(=O)[C@@H](NC(=O)OC)[C@@H](C)OC)[nH]c5cc4F)N3c3cc(F)c(N4CCC(c5ccc(F)cc5)CC4)c(F)c3)c(F)cc2[nH]1)[C@@H](C)OC` [Compound 1, methyl {(2S,3R)-1-[(2S)-2-{5-[(2R,5R)-1-{3,5-difluoro-4-[4-(4-fluorophenyl)piperidin-1-yl]phenyl}-5-(6-fluoro-2-{(2S)-1-[N-(methoxycarbonyl)-O-methyl-L-threonyl]pyrrolidin-2-yl}-1H-benzimidazol-5-yl)pyrrolidin-2-yl]-6-fluoro-1H-benzimidazol-2-yl}pyrrolidin-1-yl]-3-methoxy-1-oxobutan-2-yl}carbamate]: the concentration giving a half-maximal response (EC50) in test [17] was 0.0043 ± 0.0017 nM; in [18], 0.0021 ± 0.0007 nM; in test [1], 0.0018 nM; in test [3], 0.0025 nM; in test [19] it was 0.0018 ± 0.0009 nM; in test [5], 0.001 nM. Moreover, the EC50 in test [6] was 0.0043 nM; in [20], less than 10000 nM; in test [7], 0.0013 nM; in test [8] it was 0.001 nM; in [21], less than 5000 nM; in test [9], 0.0014 nM. In addition, the EC50 in test [22] came to 0.0019 ± 0.0006 nM; in test [10], 0.0013 nM; in test [23], 0.0019 ± 0.0006 nM; in test [12] it was 0.0019 nM; in test [13], 0.001 nM; in test [14], 0.0011 nM. The EC50 is 0.0023 ± 0.0007 nM in [24]; 0.001 nM in [25]; 0.0028 ± 0.0007 nM in [26]; 0.0014 ± 0.0004 nM in [27]; 0.0011 nM in test [28]; 0.0015 nM in test [16].
